Assays:
Format in all cases: in vivo
[1] = tested on: housefly adults (Musca domestica); experiment: Comparative residual effect in soil; settings: for Residual effect in soil (mortality), 0 weeks / Residual Activity (weeks): soil concentration four times LD50, housefly; for Residual effect in soil (mortality), 0 weeks: 24 hours; for Residual effect in soil (mortality), 1 week / Residual effect in soil (mortality), 4 weeks: soil concentration four times LD50, 25° C., 90% relative humidity; for Residual effect in soil (mortality), 1 week: 10080 min; for Residual effect in soil (mortality), 4 weeks: 40320 min
Procedure: Selected species of the new compounds were evaluated for their residual pesticidal activity in soil. […] The residual activity test were conducted using five to seven-day old housefly adults (Musca domestica).
The soil mixture used was one part agricultural soil and three parts sand. The agricultural soil was stored in plastic bags in a freezer, immediately after removal from the field. This was done to reduce microbial multiplication. Two weeks prior to use, the soil was thawed and held at room temperature to allow microbial population to equilibrate. The sand and soil were sifted to remove clumps and debris and were then blended by rolling on a roller mill in a closed metal container. The moisture level was adjusted to 15% by weight.
The concentration in the soil of the compound to be tested was four times the amount (in parts per million) necessary to achieve a mortality rate of 50% on contact with the soil (LD50). This is in accordance with the procedure developed by C. R. Harris of the Research Institute, Canadian Department of Agriculture, London, Ontario. Such procedure is disclosed in "Biological Activity of Chloropyrifos, Chlorpyrifor-Methyl, Phorate, and Counter® in Soil", The Canadian Entomologist, Vol. 109, pp. 1115-1120 (August 1977); and in "Laboratory Studies on the Persistance of Biological Activity of Some Insecticides in Soils", Journal of Economic Entomology, Vol. 62, No. 6, pp. 1437-1441 (December 1969).
An appropriate amount of compound was dissolved in an acetone--Triton solution and was diluted with water. Five mililiters of the formulated chemical was applied to four ounces of soil mixture and rolled in a 16-ounce glass jar to blend the compound evenly with the soil. Ten mililiters of granular cane sugar was then mixed thoroughly with the treated soil in an eight-ounce plastic container.
Twenty-five housefly adults, anesthetized with CO2, were then transferred to the soil and were covered with a perforated plastic lid. The test containers were held for 24 hours in a constant environment at a temperature of 80±5° F. and a relative humidity of […]. Mortality was based on the ability of the fly to move in a normal manner without spinning.
The above process was repeated on treated soil which had been incubated at 25° C. and 90% relative humidity for 1, 4, 6 and 8 weeks after initial exposure. This was necessary because the soil is incubated without sugar, sugar being added at the time of reinfestation. For this reason, appropriate volumes of soil had to be treated at the start of the soil test to last for the expected residual period.

[2] = tested on: bean aphid (Aphis fabae Scop.); experiment: Bean aphid foliage spray test; parameters: key: A: excellent control; B: partial control; C: no control at 500 ppm; settings: 500 parts per million, 24 hour
Procedure: (§1) Suspensions of the test compounds were prepared by dissolving one gram of compound in 50 milliliters of acetone in which had been dissolved 0.1 gram (10 percent of the weight of compound) of an alkylphenoxy polyethoxyethanol surfactant, as an emulsifying or dispersing agent. The resulting solution was mixed into 150 milliliters of water to give roughly 200 milliliters of a suspension containing the compound in finely divided form. The thus-prepared stock suspension contained 0.5 percent by weight of compound. The concentrations in parts per million by weight employed in the tests described hereinbelow were obtained by appropriate dilutions of the stock suspension with water. The test procedures were as follows:
Adults and nymphal stages of the bean aphid (Aphis fabae Scop.) reared on potted dwarf nasturtium plants at 68°-70° F. and 50±5 percent relative humidity, constituted the test insects. For testing purposes, the number of aphids per pot were standardized to 100-150 by trimming plants containing excess aphids.
The test compounds were formulated by diluting the stock suspension with water to give a suspension containing 500 parts of test compound per million parts of final formulation.
The potted plants (one pot per compound tested) infested with 100-150 aphids, were placed on a revolving turntable and sprayed with 100-110 milliliters of test compound formulation by use of a DeVilbiss spray gun set at 40 psig. air pressure. This application, which lasted 25 seconds, was sufficient to wet the plants to run-off. As a control, 100-110 milliliters of a water-acetone-emulsifier solution containing no test compound was also sprayed on infested plants. After spraying, the pots were placed on their sides on a sheet of white standard mimeograph paper which had been previously ruled to facilitate counting. Temperature and humidity in the test room during the 24 hour holding period were 68°-70° F. and 50±5 percent, respectively. Aphids which fell onto the paper and were unable to remain standing after being uprighted were considered dead. Aphids remaining on the plants were observed closely for movement and those which were unable to move the length of the body upon stimulation by prodding were considered dead.
(§2) In these tests the pesticidal activity of the compounds at the indicated dosage rate against aphid, Southern Armyworm, Bean Beetle and housefly was rated as follows: […]

[3] = tested on: southern armyworm (Spodoptera eridania, (Cram.)) larvae; experiment: Southern armyworm leaf spray bait test; parameters: key: A: excellent control; B: partial control; C: no control at 500 ppm; settings: 500 parts per million, three days
Procedure: as §1
Larvae of the southern armyworm (Spodoptera eridania, (Cram.)), reared on Tendergreen bean plants at a temperature of 80±5° F. and a reative humidity of 50±5 percent, constituted the test insects.
The test compounds were formulated by diluting the stock suspension with water to give a suspension containing 500 parts of test compound per million parts of final formulation. Potted Tendergreen bean plants of standard height and age were placed on a revolving turntable and sprayed with 100-110 milliliters of test compound formulation by use of a DeVilbiss spray gun set at 40 psig air pressure. This application, which lasted 25 seconds, was sufficient to wet the plants to run-off. As a control, 100-110 milliliters of a water-acetone-emulsifier solution containing no test compound were also sprayed on infested plants. When dry, the paired leaves were separated and each one was placed in a 9 centimeter Petri dish lines with moistened filter paper. Five randomly selected larvae were introduced into each dish and the dishes were closed. The closed dishes were labeled and held at 80°-85° F. for three days. Although the larvae could easily consume the whole leaf within twenty-four hours, no more food was added. Larvae which were unable to move the length of the body, even upon stimulation by prodding, were considered dead.
as §2

[4] = tested on: egg of the Southern armyworm (Spodoptera eridania (Cram.)); experiment: Southern armyworm ovicide test; parameters: key: A: excellent control; B: partial control; C: no control at 500 ppm; settings: 500 parts per million, egg dip, four days
Procedure: as §1
The test organism was the egg of the Southern armyworm (Spodoptera eridania (Cram.)) as obtained from adults reared on Tendergreen bean plants at a temperature of 80±5° F. and a relative humidity of 50±5 percent. The eggs were laid on freezer paper (Marlon 717, Copco paper) and then cut into small sections containing one or two egg masses.
The test compounds were formulated by diluting the stock suspension with water to give a suspension containing 500 parts of test compound per million parts of final formulation. The egg masses were then dipped until they were thoroughly wet (5-10 seconds). They were then placed on a paper towel face up and were allowed to dry for 15-30 minutes. The dry eggs were placed in a 15×60 mm petri dish containing a cotton dental wick saturated with a 5 percent sodium chloride solution to maintain a high level of humidity. The closed dishes were labeled and held at a temperature of 80±5° F. for four days. Larvae that emerged from the egg, even if dead at the time of observation, were recorded as hatched.
as §2

[5] = tested on: Mexican bean beetle (Epilachna varivestis, Muls.) larvae; experiment: Mexican bean beetle leaf spray test; parameters: key: A: excellent control; B: partial control; C: no control at 500 ppm; settings: 500 parts per million, fourth instar larvae, three days
Procedure: as §1
Fourth instar larvae of the Mexican bean beetle (Epilachna varivestis, Muls.), reared on Tendergreen bean plants at a temperature of 80±5° F. and 50±5° F. percent relative humdity, were the test insects.
The test compounds were formulated by diluting the stock suspension with water to give a suspension containing 500 parts of test compound per million parts of final formulation. Tendergreen bean plants of standard height and age were placed on a revolving turntable and sprayed with 100-110 milliliters of test compound formulation by use of a DeVilbiss spray gun set at 40 psig air pressure. This application, which lasted 25 seconds, was sufficient to wet the plants to run-off. As a control, 100-110 milliliters of a water-acetone-emulsifier solution containing no test compound was also sprayed on infested plants. When dry, the paired leaves were separated and each was placed in a 9 centimeter Petri dish lined with moistened filter paper. Five randomly selected larvae were introduced into each dish, and the dishes were closed. The closed dishes were labeled and held at a temperature of 80±5° F., for three days. Although the larvae could easily consume the leaf within 24 to 48 hours, no more food was added. Larvae which were unable to move the length of the body, even upon stimulation, were considered dead.
as §2

[6] = tested on: house flies (Musca domestica, L.); experiment: Fly bait test; parameters: key: A: excellent control; B: partial control; C: no control at 500 ppm; settings: 500 parts per million, sugar bait, twenty-four hours
Procedure: as §1
Four to six day old adult house flies (Musca domestica, L.), reared according to the specifications of the Chemical Specialties Manufacturing Association (Blue Book, McNair-Dorland Co., N.Y. 1954; pages 243-244, 261) under controlled conditions of 80±5° F. and 50±5 percent relative humidity, were the test insects. The flies were immobilized by anesthetizing them with carbon dioxide. Twenty-five immobilized individuals, males and females, were transferred to a cage consisting of a standard food strainer about five inches in diameter which was inverted over a wrapping-paper-covered surface. The test compounds were formulated by diluting the stock suspension with a 10 percent (by weight) sugar solution to give a suspension containing 500 parts of test compound per million parts of final formulation, by weight. Ten milliliters of the test formulation were added to a souffle cup containing a one-inch square of an absorbent cotton pad. This bait cup was introduced and centered on the blotting paper under the food strainer prior to admitting the anesthetized flies. The caged flies were allowed to feed on the bait for twenty-four hours, at a temperature of 80±5° F. and at a relative humidity of 50±5 percent.
as §2

[7] = tested on: root-knot nematode, Meloidogyne incognita var. acrita; experiment: Nematocide test; parameters: key: 1: severe galling, equal to untreated plants; 2: moderate galling; 3: light galling; 4: very light galling; 5: no galling, perfect control; settings: 3.33 m.g. per jar, cucumber, approximately 3 weeks
Procedure: The test organism used was the infective migratory larvae of the root-knot nematode, Meloidogyne incognita var. acrita, reared in the greenhouse on roots of cucumber plants. Infected plants were removed from the culture, and the roots were chopped very finely. A small amount of this inoculum was added to a pint jar containing approximately 180 cc. of soil. The jars were capped and incubated for one week at room temperature. During this period eggs of the nematode were hatched, and the larval forms migrated into the soil.
Ten ml. of the test formulation were added to each of the two jars for each dosage tested. Following the addition of chemical, the jars were capped, and the contents thoroughly mixed on a ball mill for […].
The test compounds were formulated by a standard procedure of solution in acetone addition of an emulsifier, and dilution with water. Primary screening tests were conducted at 3.33 m.g. of the test compound per jar.
The jars were left capped at room temperature for a period of 48 hours, and the contents then transferred to 3 inch pots. Subsequently, the pots were seeded to cucumber as an indicator crop and placed in the greenhouse where they were cared for in the normal fashion for approximately 3 weeks.
The cucumber plants were then taken from the pots, the soil removed from the roots, and the amount of galling visually rated.
In the test for activity against nematodes activity was rated as follows: […]

Row | SMILES | Residual effect in soil (mortality), 0 weeks [1] | Residual effect in soil (mortality), 1 week [1] | Residual effect in soil (mortality), 4 weeks [1] | Residual Activity (weeks) [1] | Aphids, pesticidal activity rating [2] | Southern Armyworm, pesticidal activity rating [3] | Southern Armyworm (egg), pesticidal activity rating [4] | Mexican Bean Beetle, pesticidal activity rating [5] | Housefly, pesticidal activity rating [6] | Root-Knot Nematode, galling rating [7]
1 | CSC(C)=NOC(=O)N(C)SN(C)C(=O)Oc1cccc(C)c1 [A] | 100 | 100 | 23 | less than 4 weeks |  |  |  |  |  | 
2 | CSC(C)=NOC(=O)N(C)SN(C)C(=O)Oc1cc(C)c(C)c(C)c1 [B] | 100 | 100 | 0 | less than 4 weeks |  |  |  |  |  | 
3 | CSC(C)=NOC(=O)N(C)SN(C)C(=O)Oc1cccc(C(C)=O)c1 [Compound 1, S-Methyl-N-[[[N'-[[N"-[(3-acetylphenoxy)carbonyl]-N"-methylaminosulfenyl]]-N'-methylcarbamoyloxy]]]thioacetimidate] |  |  |  |  | A | A | A | A | A | 5
4 | CSC(C)=NOC(=O)N(C)SN(C)C(=O)Oc1ccc(C(C)=O)cc1 [Compound 2] |  |  |  |  | A | A | A | A | A | 5
5 | CSC(C)=NOC(=O)N(C)SN(C)C(=O)Oc1ccc(C(=O)O)cc1 [Compound 4, S-Methyl-N-[[[N'-[[N"-[(4-hydroxycarbonylphenoxy)carbonyl]-N"-methylaminosulfenyl]]-N'-methylcarbamoyloxy]]]thioacetimidate] |  |  |  |  | B | A |  | A | A | 
6 | COc1cc(C=O)ccc1OC(=O)N(C)SN(C)C(=O)ON=C(C)SC [Compound 5] |  |  |  |  | A | A | B | A | A | 2
7 | CNC(=O)ON=C(C)SC [Methomyl, methyl N[[(methylamino)carbonyl]oxy]ethanimidothioate] | 100 | 100 | 15 | less than 4 weeks |  |  |  |  |  | 
